Measurements published in patent US11730720B2, “ALK5 inhibitors” (THERAVANCE BIOPHARMA R&D IP, LLC, priority 2018, dated 2023).

How the values were obtained:
[1] = molecular target: T1, recombinant human ALK5 (TGF-βR1) protein (Homo sapiens, UniProt P36897); assay: Biochemical ALK5 (TGF-βR1) assay to measure pKi (LANCE Ultra ULight kinase assay); conditions: apparent pKi, converted from pIC50 using the Cheng-Prusoff equation
T1 construct: purchased Life Technologies PR9075A
T1 sequence (P36897 34-503): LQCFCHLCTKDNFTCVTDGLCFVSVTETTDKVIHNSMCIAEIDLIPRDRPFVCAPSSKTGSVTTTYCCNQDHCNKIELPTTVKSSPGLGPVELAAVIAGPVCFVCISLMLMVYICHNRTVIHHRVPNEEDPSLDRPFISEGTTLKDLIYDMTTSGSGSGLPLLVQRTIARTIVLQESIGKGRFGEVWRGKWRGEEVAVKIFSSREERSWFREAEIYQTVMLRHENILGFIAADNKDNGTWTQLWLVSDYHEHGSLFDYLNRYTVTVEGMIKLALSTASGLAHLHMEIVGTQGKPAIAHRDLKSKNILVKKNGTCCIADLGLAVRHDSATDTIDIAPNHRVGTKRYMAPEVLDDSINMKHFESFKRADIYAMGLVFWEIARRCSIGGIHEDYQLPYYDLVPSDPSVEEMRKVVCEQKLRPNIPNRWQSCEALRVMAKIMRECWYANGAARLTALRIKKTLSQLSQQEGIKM
Procedure, shortened: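 TR-FRET kinase format: compound dose range 10 μM–25 pM equilibrated 60 min with human ALK5 and ULight-labelled topoisomerase 2α peptide in HEPES/MgCl2 buffer pH 7.5 with DTT. Reaction started with ATP (125 μM stock, 5× final), 60 min at 37° C, stopped with EDTA/Eu-anti-phospho antibody; pKi derived from pIC50 via Cheng-Prusoff.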

[2] = system: TGF-β-stimulated SMAD3 phosphorylation in BEAS-2B cells; assay: Cellular ALK5 potency assay, inhibition of TGF-β stimulated pSMAD3 formation in BEAS-2B cells; assay type: cell-based; conditions: Homo sapiens, inhibition of TGF-β (10 ng/mL) stimulated pSMAD3 formation, 1 hour compound incubation, read-out: BEAS2B pIC50 (converted)
Procedure, shortened: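 Phospho-SMAD3 was quantified by AlphaLISA in lysates of human lung epithelial BEAS-2B cells. Compound was added 1 h (37 °C, HEPES/BSA-supplemented HBSS) before a 30 min challenge with 10 ng/mL TGF-β. Values are pIC50 relative to stimulated cells without compound.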

SMILES | Ki [1] [nM] | IC50 [2] [nM]
Fc1ccc(Cl)cc1-c1n[nH]cc1-c1ccc2ncc(NCCN3CCC3)cc2n1 [Compound 1-8, N-[2-(azetidin-1-yl)ethyl]-6-[3-(5-chloro-2-fluoro-phenyl)-1H-pyrazol-4-yl]-1,5-naphthyridin-3-amine] | 0.0398 to 0.316 | ≤ 20
CNCCn1cc(-c2cnc3ccc(-c4nc[nH]c4-c4ccc(F)c(F)c4)nc3c2)cn1 [Compound 9-3, 2-(4-(6-(5-(3,4-difluorophenyl)-1H-imidazol-4-yl)-1,5-naphthyridin-3-yl)-1H-pyrazol-1-yl)-N-methylethan-1-amine] | ≤ 0.0316 | ≤ 20
Fc1ccc(Cl)cc1-c1n[nH]cc1-c1ccc2ncc(NCC3CNC3)cc2n1 [Compound 1-28, N-(azetidin-3-ylmethyl)-6-[3-(5-chloro-2-fluoro-phenyl)-1H-pyrazol-4-yl]-1,5-naphthyridin-3-amine] | 0.0398 to 0.316 | 25.1 to 158
O=C(O)[C@H]1CN(c2cnc3ccc(-c4nc[nH]c4-c4cc(Cl)c(F)cc4F)nc3c2)CCN1 [Compound 7-3, (R)-4-(6-(5-(5-chloro-2,4-difluorophenyl)-1H-imidazol-4-yl)-1,5-naphthyridin-3-yl)piperazine-2-carboxylic acid] | 0.398 to 3.16 | 25.1 to 158
COC(=O)CC1CN(CCNc2cnc3ccc(-c4c[nH]nc4-c4cc(Cl)c(F)cc4F)nc3c2)CCN1 (stereo not shown) [Compound 6-75, methyl 2-[4-[2-[[6-[3-(5-chloro-2,4-difluoro-phenyl)-1H-pyrazol-4-yl]-1,5-naphthyridin-3-yl]amino]ethyl]piperazin-2-yl]acetate] | 0.398 to 3.16 | 25.1 to 158
CNCCn1cc(-c2cnc3ccc(-c4c[nH]nc4-c4ccc(F)c(F)c4)nc3c2)nn1 [Compound 8-27, 2-(4-(6-(3-(3,4-difluorophenyl)-1H-pyrazol-4-yl)-1,5-naphthyridin-3-yl)-1H-1,2,3-triazol-1-yl)-N-methylethan-1-amine] | 0.0398 to 0.316 | 25.1 to 158
Cc1oc(=O)oc1CN1CCN(c2cnc3ccc(-c4nc[nH]c4-c4cc(Cl)ccc4F)nc3c2)CC1 [Compound 2-37, 4-[[4-[6-[5-(5-chloro-2-fluoro-phenyl)-1H-imidazol-4-yl]-1,5-naphthyridin-3-yl]piperazin-1-yl]methyl]-5-methyl-1,3-dioxol-2-one] | 0.0398 to 0.316 | 200 to 1260
CC(C)N1CCN(CCNc2cnc3ccc(-c4c[nH]nc4-c4ccc(F)c(F)c4)nc3c2)CC1 [Compound 8-1, 6-(3-(3,4-difluorophenyl)-1H-pyrazol-4-yl)-N-(2-(4-isopropylpiperazin-1-yl)ethyl)-1,5-naphthyridin-3-amine] | 3.98 to 31.6 | 25.1 to 158
COCc1cccc(-c2n[nH]cc2-c2ccc3ncc(N4CCC(N(C)C)CC4)cc3n2)c1 [Compound 14-7, 1-[6-[3-[3-(methoxymethyl)phenyl]-1H-pyrazol-4-yl]-1,5-naphthyridin-3-yl]-N,N-dimethyl-piperidin-4-amine] | 3.98 to 31.6 | 25.1 to 158
CNCCn1cc(-c2cnc3ccc(-c4nc[nH]c4-c4ccc(F)c(F)c4)cc3c2)cn1 [Compound 23-2, 2-[4-[6-[5-(3,4-difluorophenyl)-1H-imidazol-4-yl]-3-quinolyl]pyrazol-1-yl]-N-methyl-ethanamine] | 0.0398 to 0.316 | 25.1 to 158
CN(C)C1CCN(c2cnc3ccc(-c4nc[nH]c4-c4cc(Cl)ccc4F)nc3c2)CC1 [Compound 2-6, 1-(6-(5-(5-chloro-2-fluorophenyl)-1H-imidazol-4-yl)-1,5-naphthyridin-3-yl)-N,N-dimethylpiperidin-4-amine] | 0.0398 to 0.316 | 25.1 to 158
Fc1cc(F)c(-c2n[nH]cc2-c2ccc3ncc(-c4cn(Cc5c[nH]cn5)nn4)cc3n2)cc1Cl [Compound 6-62, 7-(1-((1H-imidazol-4-yl)methyl)-1H-1,2,3-triazol-4-yl)-2-(3-(5-chloro-2,4-difluorophenyl)-1H-pyrazol-4-yl)-1,5-naphthyridine] | 0.0398 to 0.316 | 25.1 to 158
CN(C)C1CC=C(c2cnc3ccc(-c4c[nH]nc4-c4ccc(F)c(F)c4)nc3c2)CC1 (stereo not shown) [Compound 8-25, 4-[6-[3-(3,4-difluorophenyl)-1H-pyrazol-4-yl]-1,5-naphthyridin-3-yl]-N,N-dimethyl-cyclohex-3-en-1-amine] | 0.0398 to 0.316 | 25.1 to 158
CN1CCC(N(C)c2cnc3ccc(-c4c[nH]nc4-c4cc(Cl)ccc4F)nc3c2)CC1 [Compound 1-37, 6-[3-(5-chloro-2-fluoro-phenyl)-1H-pyrazol-4-yl]-N-methyl-N-(1-methyl-4-piperidyl)-1,5-naphthyridin-3-amine] | 0.0398 to 0.316 | 25.1 to 158
O=C(O)CC1CNCCN1CCNc1cnc2ccc(-c3nc[nH]c3-c3cc(Cl)ccc3F)nc2c1 (stereo not shown) [Compound 2-34, 2-[1-[2-[[6-[5-(5-chloro-2-fluoro-phenyl)-1H-imidazol-4-yl]-1,5-naphthyridin-3-yl]amino]ethyl]piperazin-2-yl]acetic acid] | 0.0398 to 0.316 | 200 to 1260
Fc1ccc(Cl)cc1-c1[nH]cnc1-c1ccc2ncc(-c3cnn(C4CCCNC4)c3)cc2n1 (stereo not shown) [Compound 2-18, 2-[5-(5-chloro-2-fluoro-phenyl)-1H-imidazol-4-yl]-7-[1-(3-piperidyl)pyrazol-4-yl]-1,5-naphthyridine] | 0.0398 to 0.316 | 25.1 to 158
CC(C)N1CCN(CCNc2cnc3ccc(-c4c[nH]nc4-c4cc(Cl)ccc4F)nc3c2)CC1 [Compound 1-2] | 0.0398 to 0.316 | ≤ 20
Fc1cc(F)c(-c2n[nH]cc2-c2ccc3ncc(NCC4CCCN4)cc3n2)cc1Cl (racemic) [Compound 6-73, 6-[3-(5-chloro-2,4-difluoro-phenyl)-1H-pyrazol-4-yl]-N-[[rac-(2S)-pyrrolidin-2-yl]methyl]-1,5-naphthyridin-3-amine] | 0.398 to 3.16 | 25.1 to 158
CNCCn1cc(-c2cnc3ccc(-c4c[nH]nc4-c4cc(Cl)ccc4F)cc3c2)cn1 [Compound 16-1, 2-(4-(6-(3-(5-chloro-2-fluorophenyl)-1H-pyrazol-4-yl)quinolin-3-yl)-1H-pyrazol-1-yl)-N-methylethan-1-amine] | ≤ 0.0316 | ≤ 20
O=C(O)CC1CN(c2cnc3ccc(-c4nc[nH]c4-c4cccc(Cl)c4)nc3c2)CCN1 (stereo not shown) [Compound 29-4, 2-(4-(6-(5-(3-chlorophenyl)-1H-imidazol-4-yl)-1,5-naphthyridin-3-yl)piperazin-2-yl)acetic acid] | 0.398 to 3.16 | 1580 to 10000
CN(C)C1CCN(c2cnc3ccc(-c4c[nH]nc4-c4ccc(F)c(F)c4)nc3c2)CC1 [Compound 8-7, 1-[6-[3-(3,4-difluorophenyl)-1H-pyrazol-4-yl]-1,5-naphthyridin-3-yl]-N,N-dimethyl-piperidin-4-amine] | 0.398 to 3.16 | 25.1 to 158
CNCCn1cc(-c2cnc3ccc(-c4c(-c5cc(Cl)ccc5F)nc5ccccn45)cc3c2)cn1 [Compound 19-1, 2-(4-(6-(2-(5-chloro-2-fluorophenyl)imidazo[1,2-a]pyridin-3-yl)quinolin-3-yl)-1H-pyrazol-1-yl)-N-methylethan-1-amine] | 0.0398 to 0.316 | 25.1 to 158
CNCCn1cc(-c2cnc3ccc(-c4nc[nH]c4-c4cccc(Cl)c4)cc3c2)cn1 [Compound 24-1, 2-(4-(6-(5-(3-chlorophenyl)-1H-imidazol-4-yl)quinolin-3-yl)-1H-pyrazol-1-yl)-N-methylethan-1-amine] | ≤ 0.0316 | ≤ 20
